Activity calls are given as the source filed them.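 The calls were made as follows: active = compounds giving half or more protection of infected cells from virus-caused growth loss, again on retest; inactive = the rest.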 Where a SMILES comes first, the peptide text is derived from it. The star is where a group is joined. Boc = CC(C)(C)OC(=O)*
Test system: CEM cells HIV-1 protection, formazan growth assay
Assay: NCI AIDS Antiviral Assay
Details: for IC50: measured here: growth of uninfected CEM cells
How it was run: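 Five concentrations of each compound were applied to infected and uninfected human CEM cells. Protection from HIV-1 was judged from growth measured with a soluble formazan assay.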

Structure (SMILES)	outcome	EC50 [µM]	IC50 [µM]
CCOC(=O)c1[nH]c(COC(C)=O)c2c1CCCCCCCCCC2	inactive	–	–
O=[N+]([O-])c1ccc(C2OC3CC4C5CCCC5C3C4O2)cc1 (stereo not given)	–	> 200	19.5
CCOC(CN(C)C(=O)Nc1ccc(Cl)c(Cl)c1)OCC	–	> 200	14.8
CNC(=O)CNC(=O)C(NC(=O)CNC(=O)C1CCCN1C(=O)C(C)NC(=O)C(NC(=O)OC(C)(C)C)C(C)C)C(C)C (stereo not given) (Boc-VAPGVG-NHMe; configuration not given here)	–	> 200	> 200
O=C1CS(=O)(=O)C(c2ccc(Cl)cc2)N1N1C(=O)CS(=O)(=O)C1c1ccc(Cl)cc1 (stereo not given)	–	> 200	5.75
CCOc1ccc(NC(=O)CCc2nnc(SC)o2)cc1	–	> 162	> 162
CCC(F)(C(N)=O)C(=O)O (stereo not given)	–	> 200	> 200
O=S1(=O)OCCOS(=O)(=O)C1Cc1nc2ccccc2[nH]1	–	> 200	32.4
COc1cc(/C=C2\S/C(=N/Nc3nc(-c4ccc(Br)cc4)cs3)NC2=O)cc(OC)c1OC	–	> 200	17
CC(C)(C)C1CC[C@H]2c3c([nH]c4ccccc34)[C@H]3C(=O)N(c4ccc(F)cc4)C(=O)[C@H]3[C@H]2C1 (stereo not given in full)	–	> 11.7	> 11.7
CC1=NN(C(=O)CC(=O)Nc2ccccc2Cl)C(=O)C1N=Nc1ccc(C(=O)O)cc1 (stereo not given)	–	> 200	81.3
O=C1CCN2C(=O)CCN12	–	> 1780	> 1780
Oc1ccc(/C=C/c2ccc(O)c(O)c2)cc1O	–	> 200	14.5
CC12CCC(C(=O)OC1=O)C2(C)C (stereo not given)	–	> 200	> 200
c1cnc2c(c1)Nc1cnncc1S2	–	> 200	> 200
O=S(=O)(O/C1=C/CCCCCC1)C(F)(F)F	–	> 100	> 100
O=C(O)C1(Cc2ccc3c(c2)CCC3)Cc2cc3c(cc2C1)CCC3	–	> 200	35.5
CC1Cc2c(cc(N)nc2Br)NC1=O (stereo not given)	–	> 200	95.5
C/C1=C/C(=O)O[C@@H]2C[C@@H](CC[C@H](C)/C=C\C=C\CC1)O[C@@](O)([C@@H]1CSC(=O)N1)C2	–	> 2	0.363
c1ccc(C2=Nc3ccccc3N=C3CCCC32)cc1 (stereo not given)	–	> 200	> 200
NC1=NC(=O)/C(=C/c2ccccc2[N+](=O)[O-])C(N)=N1	inactive	–	–

Structure (SMILES)	outcome	EC50 [µM]	IC50 [µM]
Cn1nc2c(c1N)Cc1c(nn(C)c1N)-c1ccccc1-2	–	> 200	191
O=C(Cc1nc2ccccc2s1)C(=O)Nc1ccccc1C(F)(F)F	–	> 70.8	> 70.8
Cc1c(NC(=O)CCl)c(=O)oc2c(C)c3occc(=O)c3cc12	–	> 40.7	0.204
C[CH2][Ge]([CH2]C)([CH2]C)[O]C(=O)C(OC(C)=O)c1ccccc1 (stereo not given)	–	> 251	195
O=C(CC(=O)c1ccccc1NC1=Cc2ccccc2C(=O)C1=O)C(=O)NC1=C(Cl)C(=O)c2ccccc2C1=O	–	> 18.2	3.24
COC1/C=C/OC2(C)Oc3c(C)c(O)c4c(O)c(c(/C=N/N5CC(C)N(C(=O)c6ccccc6)C(C)C5)c(O)c4c3C2=O)NC(=O)C(C)=C/C=C/C(C)C(O)C(C)C(O)C(C)C(OC(C)=O)C1C (stereo not given)	–	> 200	6.46
O=C(N=c1ccc2nc(=O)[nH]n(O)c-2c1)C(F)(F)F	–	> 200	186
CCCC(O)c1cn(C(NC(=O)c2ccccc2)P(=O)(OCC)OCC)nn1 (stereo not given)	–	> 200	> 200
COc1ccc2c(c1)CCc1cnc(=S)[nH]c1-2	–	> 40.7	> 40.7
CC(=O)C1C(=O)C(=O)N(c2ccccc2C(C)C)C1=O (stereo not given)	inactive	–	–
Cc1ccc(C(=O)C2CC3(CCC2(O)c2ccc(C)cc2)CC(=O)Nc2ccccc2C3=O)cc1 (stereo not given)	–	> 200	89.1
O=C(O)c1cccc(Sc2ccccc2)c1	–	> 407	251
N#Cc1c(O)c(/C=N/c2ncccn2)c(=O)n2c1[nH]c1ccccc12	–	> 200	> 200
Cc1ccnc(NC(=S)Nc2cccc(Cl)c2)c1	–	57.5	> 200
Cc1cc(O)cc(C)c1Cl	–	162	> 200
Cc1cc(NS(=O)(=O)c2ccc(Nc3c4ccccc4nc4c(C(=O)NCCO)cccc34)cc2)no1	–	> 200	12.6
Cc1ccc2c(=O)c3cccc(CC(=O)O)c3[nH]c2c1C	–	> 200	47.9
O=C(NO)Nc1ccc(Cl)c(Cl)c1	inactive	–	56.2
Fc1ccc2nncc(SCc3ccccc3Cl)c2c1	–	> 87.1	35.5
CCOP(=O)(Nc1ccc(-c2ccccc2)cc1)OCC	–	> 200	52.5
OCc1ncccc1O	–	> 200	> 200

Structure (SMILES)	outcome	EC50 [µM]	IC50 [µM]
C=C1C2CCC3(CCC4C5(C)CCCC4(C=NC5)C3C2)C1O (stereo not given)	inactive	–	–
O=C(NC1CCC(=O)N1C(=O)OCc1ccccc1)OCc1ccccc1 (stereo not given)	–	> 200	> 200
Cc1noc(NS(=O)(=O)c2ccc(N=c3c4ccccc4n(C)c4ccccc34)cc2)c1C	inactive	–	–
CCOC(=O)c1cn2ccccc2c(C(=O)c2cccnc2)c1=N	–	> 50.1	> 50.1
C=CCC1(CC(=O)O)CC=CCC12OCCO2 (stereo not given)	–	> 200	> 200
O=C1CC2(CCc3ccccc32)C(=O)N1CN1CCN(c2ccccn2)CC1 (stereo not given)	–	> 87.1	70.8
CC(C)CCSSCCC(C)C	–	> 200	> 200
COc1ccccc1/C=C1\S/C(=N/Nc2nc(C)c(C(C)=O)s2)NC1=O	–	> 200	112
Nc1ccc(SSc2ccc(Nc3ccnc4cc(Cl)ccc34)cc2)cc1	–	> 200	5.01
CCCCC[C@@H]1OC(=O)/C(=C2/CC[C@@H](CCCC)O2)C(=O)[C@@H]1O	inactive	–	–
COc1ccc2c(c1)[C@@H](NC(C)=O)CCc1cc(OC)c(OC)c(OC)c1-2	–	> 0.0708	0.011
CC1(O)C[C@]23CC[C@H]4[C@@H](CC=C5C[C@@H](O)CC[C@@]54C)[C@@H]2CC[C@H]13 (stereo not given in full)	–	> 200	> 200
O=C1NC(c2ccccc2)C1N(Cc1ccccc1)Cc1ccccc1 (stereo not given)	–	> 200	> 200
CC(=O)NNC(=S)N/C=C(\C#N)C(=O)c1ccc2ccccc2c1	–	> 200	> 200
Cc1cccc(C)c1NC(=O)C(=O)C(C#N)c1ccccc1Cl (stereo not given)	–	> 759	> 759
Nc1cc2cccc[n+]2c2cc(Cl)ccc12	–	> 20	1.86
O=S(=O)(O)NCC1OC2OC3C(CNS(=O)(=O)O)OC(OC4C(CNS(=O)(=O)O)OC(OC5C(CNS(=O)(=O)O)OC(OC6C(CNS(=O)(=O)O)OC(OC7C(CNS(=O)(=O)O)OC(OC8C(CNS(=O)(=O)O)OC(OC1C(OS(=O)(=O)O)C2OS(=O)(=O)O)C(OS(=O)(=O)O)C8OS(=O)(=O)O)C(OS(=O)(=O)O)C7OS(=O)(=O)O)C(OS(=O)(=O)O)C6OS(=O)(=O)O)C(OS(=O)(=O)O)C5OS(=O)(=O)O)C(OS(=O)(=O)O)C4OS(=O)(=O)O)C(OS(=O)(=O)O)C3OS(=O)(=O)O (stereo not given)	–	> 50.1	> 50.1
CC12CCC(=O)N1c1cc([N+](=O)[O-])ccc1N2 (stereo not given)	inactive	–	–
COC(=O)C1CC2C(=O)N(c3ccccc3)C(=O)C2c2c1n(C)c1ccccc21 (stereo not given)	–	> 32.4	> 32.4

Source: PubChem BioAssay AID179 (DTP/NCI, 2004)
